Results published in PMC6881254, “ABCA1 transporter reduces amphotericin B cytotoxicity in mammalian cells” (Cellular and Molecular Life Sciences: CMLS, 2019).
In brackets after ≈: the same amount, converted by molar mass. Read-outs that look alike come from different tables or passages of the source.

What was measured:
A1G cells [1] = assay: AmB cytotoxicity, MTT assay in A1G cells (CHO-K1 stably expressing ABCA1-GFP); format: cell-based, Chinese hamster; details: Cricetulus griseus, ± SE
Procedure: (§1) A1G and MMG cell lines, mock and GW3965-treated macrophages were seeded in triplicate in 96-well plates at 1 × 10^4 cells/well for CHO cells and 2 × 10^4 cells for Raw 264.7 macrophages and incubated in complete Ham’s F-12 medium at 37 °C, 5% CO2 overnight to allow the cells to attach to the plate. […] For probucol treatment, the cells were preincubated with 10 µM probucol in complete Ham’s F-12 medium at 37 °C, 5% CO2 for 2 h. Then, the medium was removed and AmB was added in different concentrations (from 0 to 40 µg/mL) in complete Ham’s F-12 medium containing 10 µM probucol and cells were incubated for additional 3 h at 37 °C, 5% CO2. After incubation, the medium was removed and 3-[4,5-dimethylthiazol-2-yl]-2,5-diphenyltetrazolium bromide (MTT, 0.5 mg/mL, Sigma-Aldrich) in complete Ham’s F-12 was added. Cells were incubated for 4 h at 37 °C, then MTT was removed carefully and the formazan crystals were dissolved in DMSO. Plates were shaken for 10 min before reading them on a UVM 340 microplate reader (Biogenet) at 550 nm with a reference wavelength of 630 nm. The cell viability was estimated as the percentage of the control, which was the cells untreated with any agents (100%).
(§2) To lower the cholesterol content in the cells, A1G and MMG cell lines were seeded at either 1 × 10^4 cells/well in a 96-well plate (cytotoxicity) or 4 × 10^5 cells/well (cholesterol content) in a 6-well plate in complete Ham’s F-12 medium for 8 h to allow the cells to attach to the plate. Cells were then washed three times with Ham’s F-12 medium supplemented with delipidated serum (Biowest) (ΔFBS medium) and incubated with 10 µM zaragozic acid (ZA) in ΔFBS medium for 16 h at 37 °C, 5% CO2. To reload the plasma membrane with cholesterol, cells after ZA treatment were washed three times with ΔFBS medium and incubated with 100 µM cholesterol–1 mM methyl-β-cyclodextrin complex in ΔFBS medium for 30 min at 37 °C, 5% CO2. As a control, cells were incubated for 16 h with only ΔFBS medium at 37 °C, 5% CO2. After treatment, cells were either processed with AmB cytotoxicity MTT assay or lysed as described for cholesterol content measurement.
(§3) All mathematical and statistical analysis was performed using the GraphPad Prism 7 software package (GraphPad). For IC50 value determination, a nonlinear fit (inhibitor vs. normalized response with variable slope) of cell viability in the function of AmB decreased concentrations was applied. The statistical significance of differences was assessed either by two-way ANOVA or by t test. For all tests, the significance level (alpha, α) was set to 0.05. Significant differences are indicated in individual graphs with p values as follows: ****p < 0.0001, ***p < 0.001, **p < 0.01, *p < […]. If the differences were not significant, nothing is stated. For each result, an appropriate description of the analysis appears in the figure legend.

Raw 264.7 macrophages = assay: AmB cytotoxicity, MTT assay in Raw 264.7 macrophages; format: cell-based, murine; details: Mus musculus, RAW264.7, AmB 3 h, read-out: IC50 (cell viability, MTT)
Procedure: (§4) A1G and MMG cell lines, mock and GW3965-treated macrophages were seeded in triplicate in 96-well plates at 1 × 10^4 cells/well for CHO cells and 2 × 10^4 cells for Raw 264.7 macrophages and incubated in complete Ham’s F-12 medium at 37 °C, 5% CO2 overnight to allow the cells to attach to the plate. The medium was then removed, AmB was added in complete Ham’s F-12 medium (or in ΔFBS medium, see next paragraph) in different concentrations (from 0 to 40 µg/mL) and cells were incubated for 3 h at 37 °C. For probucol treatment, the cells were preincubated with 10 µM probucol in complete Ham’s F-12 medium at 37 °C, 5% CO2 for 2 h. Then, the medium was removed and AmB was added in different concentrations (from 0 to 40 µg/mL) in complete Ham’s F-12 medium containing 10 µM probucol and cells were incubated for additional 3 h at 37 °C, 5% CO2. […] Plates were shaken for 10 min before reading them on a UVM 340 microplate reader (Biogenet) at 550 nm with a reference wavelength of 630 nm. […]
(§5) All mathematical and statistical analysis was performed using the GraphPad Prism 7 software package (GraphPad). […] The statistical significance of differences was assessed either by two-way ANOVA or by t test. […]
Cells were exposed to increased concentrations of AmB, ranging from 0 to 40 µg/mL, for 3 h and then the viability was analyzed by MTT assay. […]

CHO-K1 wild-type cells = assay: AmB cytotoxicity, MTT assay in CHO-K1 wild-type cells; format: cell-based, Chinese hamster; details: Cricetulus griseus, AmB 3 h, read-out: IC50 (cell viability, MTT)
Procedure: as §4, with “CO2. After incubation, the medium was removed and 3-[4,5-dimethylthiazol-2-yl]-2,5-diphenyltetrazolium bromide (MTT, 0.5 mg/mL, Sigma-Aldrich) in complete Ham’s F-12 was added.” for “CO2.”
as §5

MMG cells [2] = assay: [3H]-cholesterol efflux to AmB as acceptor in MMG cells; format: cell-based, Chinese hamster; details: 20 µg/mL AmB
Procedure: (§6) The [^3H]-cholesterol efflux protocol was adapted from Yang and Gelissen. Briefly, A1G and MMG cells were seeded in 0.5 mL of complete Ham’s F12 medium at 5 × 10^4 cells/well in 24-well plates and grown overnight at 37 °C, 5% CO2. The next day, the cell culture medium was replaced either with 0.25 mL of complete Ham’s F12 medium or complete Ham’s F12 medium containing 1 µCi/mL of [^3H]-cholesterol (Perkin Elmer) and incubated for 24 h at 37 °C, 5% CO2. On the last day, the cell medium was removed, and the cells were washed three times with PBS buffer (with intermediate 15 min incubation in PBS buffer). Afterwards, cells were incubated for 3 h in 0.25 mL of complete Ham’s F12 medium containing (or not, in controls) 20 µg/mL of AmB at 37 °C, 5% CO2. […] One hundred fifty microliters of each of cell medium and cell lysate were added to 5 mL of Ecolite + scintillation cocktail (MPBIO) and radioactivity was counted in CPM mode using a Beckman LS analyzer (Beckman Coulter). After subtraction of background radioactivity, the percentage of [^3H]-cholesterol efflux was calculated according to the formula: (CPM in media)/[(CPM in media) + (CPM in cells)].

A1G cells [3] = assay: [3H]-cholesterol efflux to AmB as acceptor in A1G cells; format: cell-based, Chinese hamster; details: 20 µg/mL AmB
Procedure: as §6

MMG cells [4] = assay: AmB cytotoxicity, MTT assay in MMG cells (CHO-K1 stably expressing non-active ABCA1MM-GFP); format: cell-based, Chinese hamster; details: Cricetulus griseus, ± SE
Procedure: as §1, §2, §3

A1G and MMG cell lines = assay: Total cellular cholesterol content (Amplex Red) after zaragozic acid treatment; format: cell-based, Chinese hamster; details: 10 µM ZA in ΔFBS medium 16 h, compared with non-ZA-treated cells cultured in ΔFBS medium
Procedure: To lower the cholesterol content in the cells, A1G and MMG cell lines were seeded at either 1 × 10^4 cells/well in a 96-well plate (cytotoxicity) or 4 × 10^5 cells/well (cholesterol content) in a 6-well plate in complete Ham’s F-12 medium for 8 h to allow the cells to attach to the plate. Cells were then washed three times with Ham’s F-12 medium supplemented with delipidated serum (Biowest) (ΔFBS medium) and incubated with 10 µM zaragozic acid (ZA) in ΔFBS medium for 16 h at 37 °C, 5% CO2. […]
The cells were harvested, washed three times with PBS and lysed with RIPA buffer (25 mM HEPES, pH 7.4, 150 mM NaCl, 1% NP40, 10 mM MgCl2, 1 mM EDTA, 2% glycerol, protease and phosphatase inhibitor cocktail) for 30 min on ice. […] Total cellular cholesterol level was determined enzymatically by cholesterol oxidase using the Amplex Red Cholesterol Assay Kit (Thermo Fisher Scientific) according to the manufacturer’s recommendations. […] The protein concentration was measured by BCA Assay Kit (Sigma-Aldrich). […] Fluorescence was measured using excitation at 560 nm and emission detection at 590 nm with a Cary Eclipse fluorescence microplate reader (Agilent Technologies). […] The final cholesterol content was calculated in ng of cholesterol per µg of protein.

SMILES	IC50 (A1G cells [1]; CHO-K1, 3 h, A1G, complete Ham's F12 medium, AmB 3 h)	IC50 (A1G cells [1]; CHO-K1, 6 h, A1G, complete Ham's F12 medium, 6 h AmB)	IC50 (A1G cells [1]; CHO-K1, 16 h, A1G, complete Ham's F12 medium, 16 h AmB)	IC50 (A1G cells [1]; CHO-K1, 16 h, A1G, ΔFBS medium + 10 µM zaragozic acid (ZA) 16 h)	IC50 (A1G cells [1]; CHO-K1, A1G, complete Ham's F12 + 10 µM probucol (2 h pretreatment), AmB 3 h)	IC50 (A1G cells [1]; CHO-K1, A1G, ΔFBS medium (delipidated serum))	IC50 (A1G cells [1]; CHO-K1, A1G, ΔFBS medium + ZA, reloaded with cholesterol (MβCD complex))	IC50 (Raw 264.7 macrophages; Raw 264.7 cells induced with 1 µM GW3965 for 24 h (ABCA1 expression))	IC50 (Raw 264.7 macrophages; mock (DMSO) control Raw 264.7 cells)	IC50 (CHO-K1 wild-type cells)	[3H]-cholesterol efflux to AmB (MMG cells [2])	[3H]-cholesterol efflux to AmB (A1G cells [3])	IC50 (MMG cells [4]; CHO-K1, 3 h, MMG, complete Ham's F12 medium, AmB 3 h)	IC50 (MMG cells [4]; CHO-K1, 6 h, MMG, complete Ham's F12 medium, 6 h AmB)	IC50 (MMG cells [4]; CHO-K1, 16 h, MMG, complete Ham's F12 medium, 16 h AmB)	IC50 (MMG cells [4]; CHO-K1, 16 h, MMG, ΔFBS medium + 10 µM zaragozic acid (ZA) 16 h)	IC50 (MMG cells [4]; CHO-K1, MMG, complete Ham's F12 + 10 µM probucol (2 h pretreatment), AmB 3 h)	IC50 (MMG cells [4]; CHO-K1, MMG, ΔFBS medium (delipidated serum))	IC50 (MMG cells [4]; CHO-K1, MMG, ΔFBS medium + ZA, reloaded with cholesterol (MβCD complex))	decrease of total cellular cholesterol content (A1G and MMG cell lines)
C[C@@H]1[C@H](O)[C@@H](C)/C=C/C=C/C=C/C=C/C=C/C=C/C=C/[C@H](O[C@@H]2O[C@H](C)[C@@H](O)[C@H](N)[C@@H]2O)C[C@@H]2O[C@](O)(C[C@@H](O)C[C@@H](O)[C@H](O)CC[C@@H](O)C[C@@H](O)CC(=O)O[C@H]1C)C[C@H](O)[C@H]2C(=O)O [AmB, Amphotericin B]	39.2 ± 4.49 µg/mL (≈ 42.4 µM)	30.9 ± 1.66 µg/mL (≈ 33.5 µM)	11.4 ± 0.35 µg/mL (≈ 12.4 µM)	9.75 ± 0.53 µg/mL	14.4 ± 0.36 µg/mL	21.2 ± 1.09 µg/mL (≈ 22.9 µM)	18.9 ± 0.77 µg/mL	14.6 µg/mL (≈ 15.7 µM)	6.18 µg/mL (≈ 6.69 µM)	16.8 µg/mL (≈ 18.1 µM)	0.3%	5.1%	13.1 ± 1 µg/mL (≈ 14.2 µM)	10.6 ± 0.48 µg/mL (≈ 11.5 µM)	6.65 ± 0.28 µg/mL (≈ 7.2 µM)	10 ± 0.67 µg/mL	9.47 ± 0.31 µg/mL	10.2 ± 0.42 µg/mL (≈ 11 µM)	6.42 ± 0.38 µg/mL	–
C=C(CC[C@]12O[C@H](C(=O)O)[C@@](O)(C(=O)O)[C@](C(=O)O)(O1)[C@H](OC(=O)/C=C/[C@@H](C)C[C@@H](C)CC)[C@H]2O)[C@@H](OC(C)=O)[C@H](C)Cc1ccccc1 [zaragozic acid]	–	–	–	–	–	–	–	–	–	–	–	–	–	–	–	–	–	–	–	approximately 50%
